These results are taken from patent US6281214A, “Biphenyl derivatives” (Eisai Co., Ltd, priority 1994, dated 2001).

Usually Ki stands for a measure of affinity in units of concentration, obtained from inhibition or displacement.

Common to all, as to parameters: species or system SD rats
The target of one assay is T1, dopamine D2 receptor (Rattus norvegicus, UniProt P61169).
T1 construct: the receptor fraction prepared from the corpus striatum was molten and suspended; from tissue; host or cells: corpus striatum of SD rats (membrane fraction)
Nature of the assay: dopamine D2 receptor binding test ([3H] Spiperone Binding Test). To be noted: 1 nM [3H] Spiperone, rat corpus striatum, room temperature, 60 minutes; read-out: Ki value, dopamine D2 receptor. In short, it runs like this:
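Rat (SD, 6–8 weeks) corpus striatum membranes in 50 mM Krebs-Tris pH 7.4 were incubated with 1 nM [3H]spiperone at room temperature for 60 minutes, with nonspecific binding defined by excess spiperone. IC50 came from probit analysis; Ki was derived using radioligand concentration and Scatchard Kd.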

For a further assay, the target named is T2, serotonin S2 receptor (Rattus norvegicus, UniProt P14842).
T2 construct: The receptor fraction prepared from the cortex was molten and suspended; from tissue; host or cells: cerebral cortex of SD rats (membrane fraction)
Nature of the assay: serotonin S2 receptor binding test ([3H] Ketanserin Binding Test). To be noted: 1 nM [3H] Ketanserin, rat cortex, 37° C., 15 minutes. Summed up: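 Rat (SD, 6–8 weeks) cortical membranes in 50 mM Tris-HCl pH 7.4 were incubated with 1 nM [3H]ketanserin for 15 min at 37 °C, then filtered and counted. Nonspecific binding was defined with methysergide. IC50 was obtained by probit analysis and converted to Ki using the Scatchard-derived Kd.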

Another assay concerns the target adrenergic α1 receptor. Nature of the assay: adrenergic α1 receptor binding test ([3H] Prazosin Binding Test). To be noted: 1 nM [3H] Prazosin, rat cortex, room temperature, 60 minutes. In short, it runs like this: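 Rat (SD, 6-8 weeks) cerebral cortex membranes in 50 mM Tris-HCl pH 7.4 incubated with 1 nM [3H]prazosin for 60 min at room temperature; nonspecific binding defined with phentolamine. IC50 by probit method, converted to Ki using radioligand concentration and Scatchard-derived Kd.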

T1 sequence (P61169 whole entry): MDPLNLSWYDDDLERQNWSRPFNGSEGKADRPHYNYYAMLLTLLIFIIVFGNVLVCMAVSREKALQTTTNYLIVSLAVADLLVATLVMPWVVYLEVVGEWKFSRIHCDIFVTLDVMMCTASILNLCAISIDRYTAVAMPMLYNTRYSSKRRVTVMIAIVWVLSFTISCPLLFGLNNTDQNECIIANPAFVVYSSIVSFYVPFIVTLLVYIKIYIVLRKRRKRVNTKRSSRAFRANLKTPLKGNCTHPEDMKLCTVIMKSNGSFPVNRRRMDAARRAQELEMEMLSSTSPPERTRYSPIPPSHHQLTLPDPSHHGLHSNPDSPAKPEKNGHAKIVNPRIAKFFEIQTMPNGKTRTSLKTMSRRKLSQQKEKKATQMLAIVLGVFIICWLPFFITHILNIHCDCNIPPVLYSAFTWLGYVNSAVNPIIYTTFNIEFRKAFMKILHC
T2 sequence (P14842 whole entry): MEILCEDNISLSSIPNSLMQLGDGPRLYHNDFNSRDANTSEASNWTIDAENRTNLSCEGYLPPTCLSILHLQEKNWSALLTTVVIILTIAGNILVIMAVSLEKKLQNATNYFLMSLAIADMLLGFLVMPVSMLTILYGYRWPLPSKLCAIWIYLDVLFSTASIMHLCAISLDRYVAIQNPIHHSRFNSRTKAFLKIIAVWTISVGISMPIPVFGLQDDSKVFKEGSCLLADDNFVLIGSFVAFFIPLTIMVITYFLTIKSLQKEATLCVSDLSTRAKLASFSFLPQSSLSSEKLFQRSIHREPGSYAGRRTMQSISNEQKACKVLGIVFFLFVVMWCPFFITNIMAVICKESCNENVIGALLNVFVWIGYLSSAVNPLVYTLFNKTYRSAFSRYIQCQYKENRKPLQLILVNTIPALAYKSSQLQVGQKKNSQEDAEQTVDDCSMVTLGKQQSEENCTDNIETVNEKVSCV

As to `CCCC(F)c1cc(N2CCN(CC)CC2)cc(-c2ccccc2)c1OC` (stereo not drawn) [Example 47, 1-Ethyl-4-[3-phenyl-4-methoxy-5-(1-fluorobutyl)]phenylpiperazine], the Ki at dopamine D2 receptor is 0.0129 µM; on serotonin S2 receptor it was 0.00572 µM; on adrenergic α1 receptor, > 1 µM.

With `CCN1CCN(c2cc(C(=O)Cc3ccccc3)c(OC)c(-c3ccccc3)c2)CC1` [Example 92, 1-Ethyl-4-(3-phenyl-4-methoxy-5-phenylacetyl)phenylpiperazine], the Ki turned out to be 0.00271 µM at dopamine D2 receptor, 0.00114 µM on serotonin S2 receptor and 0.942 µM at adrenergic α1 receptor.

Consider `CCN1CCN(c2cc(COCc3ccncc3)c(Cl)c(-c3ccccc3C)c2)CC1` [Example 169, 1-Ethyl-4-[3-(2-tolyl)-4-chloro-5-(4-pyridyl)methoxymethyl]phenylpiperazine], for which the inhibition constant Ki at dopamine D2 receptor was 0.0418 µM; on serotonin S2 receptor it was 0.108 µM; on adrenergic α1 receptor, > 1 µM.

As to `CCN1CCN(c2cc(-c3ccccc3)c(OC)c(S(=O)(=O)CCF)c2)CC1` [Example 172, 1-Ethyl-4-[3-phenyl-4-methoxy-5-(2-fluoroethane)sulfonyl]phenylpiperazine], the inhibition constant Ki was 0.0489 µM at dopamine D2 receptor, 0.0303 µM at serotonin S2 receptor and > 1 µM at adrenergic α1 receptor.

`CCCS(=O)(=O)Nc1cc(N2CCN(CC)CC2)cc(-c2ccc(OC)cc2)c1Cl` [Example 187, 1-Ethyl-4-[3-(4-methoxyphenyl)-4-chloro-5-propanesulfonyamino]phenylpiperazine]: the Ki is 0.00054 µM on dopamine D2 receptor, 0.0382 µM at serotonin S2 receptor and 0.0078 µM at adrenergic α1 receptor.

With `CCN1CCN(c2cc(CCF)c(OC)c(-c3ccccc3)c2)CC1` [Example 76, 1-Ethyl-4-[3-phenyl-4-methoxy-5-(2-fluoroetheyl)]phenylpiperazine], the inhibitory constant (Ki) came out at 0.0501 µM on dopamine D2 receptor, 0.145 µM at serotonin S2 receptor and 0.112 µM on adrenergic α1 receptor.

For the compound `CCC(F)c1cc(N2CCN(CC)CC2)cc(-c2ccccc2C#N)c1Cl` (stereo not drawn) [Example 21], the Ki was found to be 0.00185 µM at dopamine D2 receptor, 0.0144 µM on serotonin S2 receptor and 0.418 µM at adrenergic α1 receptor.

With `CCN1CCN(c2cc(-c3ccccc3)c(F)c(S(=O)(=O)CC)c2)CC1` [Example 149, 1-Ethyl-4-(3-phenyl-4-fluoro-5-ethanesulfonyl)phenylpiperazine], the inhibitory constant (Ki) was determined as 0.00624 µM on dopamine D2 receptor, 0.0116 µM on serotonin S2 receptor and 0.0272 µM at adrenergic α1 receptor.

Consider `CCC(=O)c1cc(N2CCN(CC)CC2)cc(-c2ccccc2)c1OC` [Example 82, 1-Ethyl-4-(3-phenyl-4methoxy-5-propionyl)phenylpiperazine], for which the figures for the Ki at dopamine D2 receptor, on serotonin S2 receptor and at adrenergic α1 receptor were 0.0391 µM, 0.0107 µM and 0.723 µM, respectively.

As for `CCC(F)c1cc(N2CCN(CCCc3ccncc3)CC2)cc(-c2ccccc2C)c1Cl` (stereo not drawn) [Example 150], the values for the Ki on dopamine D2 receptor, on serotonin S2 receptor and at adrenergic α1 receptor were 0.00798 µM, 0.0971 µM and > 1 µM, respectively.

Take `CCC(F)c1cc(N2CCN(C)CC2)cc(-c2ccccc2C)c1Cl` (stereo not drawn) [Example 25, 1-Methyl-4-[3-(2-tolyl)-4-chloro-5-(1-fluoropropyl)]phenylpiperazine]: the Ki at dopamine D2 receptor was 0.0024 µM; at serotonin S2 receptor it was 0.00827 µM; at adrenergic α1 receptor it was > 1 µM.

`CCN1CCN(c2cc(-c3ccccc3)c(OC)c([S+]([O-])CC)c2)CC1` (stereo not drawn) [Example 105, 1-Ethyl-4-(3-phenyl-4-methoxy-5-ethanesulfinyl)phenylpiperazine]: the inhibitory constant (Ki) on dopamine D2 receptor was found to be 0.0302 µM; at serotonin S2 receptor, 0.00521 µM; at adrenergic α1 receptor, 0.62 µM.

Take `CCCS(=O)(=O)NCc1cc(N2CCN(CC)CC2)cc(-c2ccccc2C)c1Cl` [Example 192, 1-Ethyl-4-[3-(2-tolyl)-4-chloro-5-propanesulfonylaminomethyl]phenylpiperazine]: the inhibition constant Ki at dopamine D2 receptor is > 0.1 µM; on serotonin S2 receptor it was 0.374 µM; on adrenergic α1 receptor, 0.55 µM.

Turning to `CCN1CCN(c2cc(-c3ccccc3)c(OC)c(S(=O)(=O)N3CCCC3)c2)CC1` [Example 135, 1-Ethyl-4-[3-phenyl-4-methoxy-5-(1-pyrrolidinylsulfonyl)]phenylpiperazine], the Ki on dopamine D2 receptor was 0.0421 µM; on serotonin S2 receptor, 0.016 µM; on adrenergic α1 receptor it was > 1 µM.
